Data as given in the supplement of paper PMC10307832.

What was measured:
Assay in all cases: relative viability (nuclei count vs DMSO), 5 days (fraction); higher = more cells survive
Obatoclax + Lapatinib = compound: COC1=CC(c2cc3ccccc3[nH]2)=N/C1=C\c1[nH]c(C)cc1C [Obatoclax] + CS(=O)(=O)CCNCc1ccc(-c2ccc3ncnc(Nc4ccc(OCc5cccc(F)c5)c(Cl)c4)c3c2)o1 [Lapatinib] (partner 2 µM)
Outline: (§1)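 For relative viability, nuclei counts in treated wells were divided by those in vehicle wells. Lung cancer cell lines had been pin-tool dosed in 1536-well plates the day after seeding and cultured for 5 days, then fixed and stained in one step (final 0.05% Triton X-100, 1% formaldehyde, 1 ug/ml Hoechst) and imaged at 4×. Doses were one drug alone or a fixed anchor-drug dose plus five library-drug doses (not always all listed) in √10 steps, and values are duplicate-plate medians.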

[1] = compound: CC1=CC(=NN1)NC2=CC(=NC(=N2)/C=C/C3=CC=CC=C3)N4CCN(CC4)C + Nc1ncn([C@H]2C[C@H](O)[C@@H](CO)O2)c(=O)n1 [Decitabine] (partner 2 µM)
Outline: as §1

Bortezomib + Vorinostat = compound: CC(C)C[C@H](NC(=O)[C@H](Cc1ccccc1)NC(=O)c1cnccn1)B(O)O [Bortezomib] + O=C(CCCCCCC(=O)Nc1ccccc1)NO [Vorinostat] (partner 1 µM)
Outline: as §1

Bortezomib + Lapatinib = compound: CC(C)C[C@H](NC(=O)[C@H](Cc1ccccc1)NC(=O)c1cnccn1)B(O)O [Bortezomib] + CS(=O)(=O)CCNCc1ccc(-c2ccc3ncnc(Nc4ccc(OCc5cccc(F)c5)c(Cl)c4)c3c2)o1 [Lapatinib] (partner 2 µM)
Outline: as §1

Cell Line	relative viability (Obatoclax + Lapatinib; first compound 0.01 µM)	relative viability (Obatoclax + Lapatinib; first compound 0.03162 µM)	relative viability (Obatoclax + Lapatinib; first compound 0.1 µM)	relative viability (Obatoclax + Lapatinib; first compound 0.3162 µM)	relative viability (Obatoclax + Lapatinib; first compound 1 µM)	relative viability ([1]; first compound 0.08 µM)	relative viability ([1]; first compound 0.253 µM)	relative viability ([1]; first compound 0.8 µM)	relative viability ([1]; first compound 2.53 µM)	relative viability ([1]; first compound 8 µM)	relative viability (Bortezomib + Vorinostat; first compound 0.0002 µM)	relative viability (Bortezomib + Vorinostat; first compound 0.000632 µM)	relative viability (Bortezomib + Vorinostat; first compound 0.002 µM)	relative viability (Bortezomib + Vorinostat; first compound 0.006325 µM)	relative viability (Bortezomib + Vorinostat; first compound 0.02 µM)	relative viability (Bortezomib + Lapatinib; first compound 0.0002 µM)	relative viability (Bortezomib + Lapatinib; first compound 0.000632 µM)	relative viability (Bortezomib + Lapatinib; first compound 0.002 µM)	relative viability (Bortezomib + Lapatinib; first compound 0.006325 µM)	relative viability (Bortezomib + Lapatinib; first compound 0.02 µM)
NCI-H2023	1.08	0.755	0.761	0.622	0.122	0.22	0.221	0.231	0.0739	0.0699	0.813	0.423	0.618	0.078	0.0655	0.521	0.822	0.773	0.144	0.0649
NCI-H358	0.482	0.33	0.598	0.336	0.208	0.227	0.188	0.184	0.0835	0.0684	0.699	0.71	0.405	0.0638	0.0768	0.367	0.431	0.43	0.144	0.155
SW 1573	1.06	1.16	1.31	1.13	0.559	0.51	0.652	0.451	0.111	0.0605	0.676	1.02	0.313	0.0435	0.0242	1.03	1.09	1.14	0.308	0.0835
NCI-H1993	0.809	0.771	0.835	0.755	0.865	0.526	0.598	0.616	0.47	0.445	0.894	0.987	0.605	0.258	0.266	0.69	0.77	0.935	0.51	0.497
NCI-H661	0.421	0.47	0.539	0.474	0.611	0.551	0.529	0.524	0.302	0.249	0.747	0.74	0.758	0.269	0.295	0.458	0.512	0.406	0.297	0.18
UMC-11	1.06	1.04	0.973	0.613	0.346	0.722	0.609	0.562	0.282	0.209	0.365	0.399	0.41	0.112	0.0837	0.813	0.846	0.837	0.375	0.149
NCI-H520	0.805	0.821	0.879	0.493	0.22	0.382	0.542	0.501	0.191	0.14	0.825	0.713	0.177	0.15	0.138	0.91	0.857	0.271	0.108	0.128
ChaGo-K-1						0.509	0.587	0.465	0.383	0.21	0.709	0.753	0.827	0.441	0.162					
NCI-H2085	0.808	0.695	0.686	0.533	0.394	0.541	0.507	0.56	0.336	0.298	0.753	0.78	0.83	0.255	0.217	0.725	0.759	0.727	0.382	0.231
NCI-H1651	0.645	0.764	0.744	0.664	0.341	0.356	0.597	0.613	0.322	0.132	0.568	0.571	0.534	0.587	0.134	0.709	0.74	0.301	0.128	0.103
NCI-H1703	1	1.46	1.1	0.437	0.405											1.23	0.947	0.184	0.135	0.145
NCI-H522						0.593	0.685	0.69	0.601	0.391	0.824	0.818	0.976	0.446	0.334					
LCLC-103H						0.746	0.774	0.72	0.713	0.64	0.791	0.773	0.827	0.359	0.236					
NCI-H1563	0.902	1.16	0.955	0.794	0.711											0.809	0.869	0.684	0.506	0.481
NCI-H1792	0.945	0.796		0.869	0.885	0.435	0.556	0.377	0.332	0.0377						0.797	0.862	0.967	0.929	0.797
NCI-H2228	1.04	0.826	0.986	0.627	0.335						0.694	0.73	0.101	0.124	0.108	0.986	0.816	0.438	0.115	0.119
NCI-H2342						0.753	0.774	0.662	0.703	0.641	1.01	0.789	0.838	0.748	0.627					
IA-LM	0.631	0.872	0.454	0.135	0.114						0.955	0.788	0.806	0.674	0.008	0.828	0.851	0.432	0.0336	0.0551
EBC-1	0.204	0.213	0.227	0.182	0.189											0.221	0.228	0.204	0.164	0.151
NCI-H1648						0.417	0.552	0.606	0.294	0.463	0.295	0.395	0.268	0.264	0.241					
NCI-H441						0.233	0.222	0.223	0.172	0.12	0.865	0.803	0.243	0.138	0.141					
NCI-H1299	0.911	0.977	0.932	0.881	0.308											0.959	0.93	0.933	0.463	0.16
